The target in one test is TRKA (Homo sapiens, UniProt P04629). Description: TRKA activity inhibition test (HTRF kinase assay). It counts as biochemical. To be noted: humanized recombined TRKA protein, 8.4 μM ATP. How it is done: TRKA Activity Inhibition Test
The effect of the compounds of the invention on TRKA activity was evaluated by in vitro kinase assays
(§1) The experimental methods were summarized as follows:
The in vitro activity of TRKA was measured by the use of a homogeneous time-resolved fluorescence (HTRF) kinase assay kit (Cisbio, NO. 62TKOPEC) through detecting the phosphorylation level of the substrate in the kinase reaction. The reaction buffer contained the following components: reaction buffer of the enzyme in the kit (1×), 5 mM MgCl2, 1 mM DTT; The humanized recombined TRKA protein was expressed and purified by the purification and identification platform of Tsinghua university, and was diluted into kinase solution (3 ng/μl) with the reaction buffer. The substrate reaction solution comprised 0.23 μM biotin-labeled tyrosine kinase substrate and 8.4 μM ATP, which was diluted with reaction buffer. The detection buffer comprised 0.1 ng/μL cage antibody labelled with Eu3+ and 14.375 nM XL665 labeled with streptavidin, which was diluted with reaction buffer.
The compound was dissolved into 100% DMSO and diluted to 100 or 10 μM, then diluted with DMSO in 4 times serial dilution to a minimum concentration of 6.1 or 0.61 nM, and each concentration point was further diluted 40 times with the reaction buffer.
To the 384 well plate (Corning No. 4512), 4 μl of the solution of the test compound and 2 μl of the solution of TRKA kinase were added respectively, then mixed well and incubated at room temperature for 15 minutes. 4 μl of the solution of substrate was then added and the reaction mixture was incubated at room temperature for 60 minutes. A 10 μl detection buffer of the same volume as the reaction mixture was then added, the mixture was mixed well and allowed to stand for 30 minutes at room temperature. The reaction process was monitored at the wavelengths of 620 nm and 665 nm by Envision board reader (Perkin Elmer). The ratio of 665/620 was positively correlated with the phosphorylation level of the substrate, then TRKA kinase activity was determined. […] The inhibition percentage of the test compound on the TRKA activity can be calculated by the following formula: The IC50 value of the compound was calculated at 8 concentration points by use of XLfit software (ID Business Solutions Ltd. UK) through the following formula: Y=Bottom+(Top−Bottom)/(1+10^((log IC50−X)*slope factor)) Of which Y is the inhibition percentage; X is the logarithm of the concentration of the compound to be tested; Bottom is the […] inhibition percentage; Top is the […] inhibition percentage; slope factor is the slope coefficient of the curve.

The target in another test is T1, TRKA G667C (Homo sapiens, UniProt P04629, G667C).
T1 construct: purchased Signal Chem Life Sciences N16-12 CG
T1 sequence (P04629 33-796 G667C): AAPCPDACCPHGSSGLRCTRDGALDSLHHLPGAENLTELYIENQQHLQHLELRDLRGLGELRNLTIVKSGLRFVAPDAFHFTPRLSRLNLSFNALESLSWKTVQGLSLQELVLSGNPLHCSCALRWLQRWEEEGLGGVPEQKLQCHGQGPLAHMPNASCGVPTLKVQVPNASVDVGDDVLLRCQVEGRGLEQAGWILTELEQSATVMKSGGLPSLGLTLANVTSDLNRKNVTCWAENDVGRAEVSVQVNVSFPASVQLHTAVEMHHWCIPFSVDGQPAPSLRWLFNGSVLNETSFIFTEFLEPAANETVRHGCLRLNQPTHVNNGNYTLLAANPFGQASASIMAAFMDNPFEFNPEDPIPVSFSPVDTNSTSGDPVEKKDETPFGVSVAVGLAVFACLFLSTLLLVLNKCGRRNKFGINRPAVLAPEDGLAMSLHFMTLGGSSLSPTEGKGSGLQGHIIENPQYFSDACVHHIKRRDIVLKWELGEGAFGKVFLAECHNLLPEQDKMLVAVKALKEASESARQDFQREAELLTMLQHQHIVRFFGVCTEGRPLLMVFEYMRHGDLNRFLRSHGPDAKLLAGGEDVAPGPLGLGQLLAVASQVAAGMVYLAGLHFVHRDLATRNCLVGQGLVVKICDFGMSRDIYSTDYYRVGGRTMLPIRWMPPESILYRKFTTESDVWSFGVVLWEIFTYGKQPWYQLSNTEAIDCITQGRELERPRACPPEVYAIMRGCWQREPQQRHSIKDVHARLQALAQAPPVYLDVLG
Description: TRKA G667C activity inhibition test (HTRF kinase assay). It counts as biochemical. The note with it: humanized recombined TRKA G667C protein, 2.7 μM ATP. On the procedure:
TRKA G667C Activity Inhibition Test:
The effect of the compounds of the invention on the activity of TRKA G667C was evaluated by the in vitro kinase assay.
The experimental methods were summarized below:
The in vitro activity of TRKA G667C was measured using a HTRF kinase assay kit (Cisbio, No. 62TKOPEC) by detecting the phosphorylation level of the substrate in the kinase reaction.
The reaction buffer contained the following components: reaction buffer of the enzyme in the kit (1×), 5 mM MgCl2, 1 mM DTT. The humanized recombined TRKA G667C protein (No. N16-12 CG, Signal Chem Life Sciences) was diluted into 0.09 ng/μl kinase solution with the reaction buffer. […]
4 μl of solution of the test compound and 2 μl of solution of TRKA G667C kinase were added to the 384 well plate (Corning No. 4512), mixed well and incubated at room temperature for 15 minutes. […] The reaction process was monitored at the wavelength of 620 nm and 665 nm by Envision board reader (Perkin Elmer). The ratio of 665/620 was positively correlated with the phosphorylation level of the substrate, then TRKA G667C kinase activity was determined. […]
The IC50 value of the compound was calculated at 8 concentration points by XLfit (ID Business Solutions Ltd. UK) software through the following formula: Y=Bottom+(Top−Bottom)/(1+10^((log IC50−X)*slope factor)) […]

The next test deals with T2, TRKA G595R (Homo sapiens, UniProt P04629, G595R).
T2 construct: purchased Signal Chem Life Sciences N16-12BG
T2 sequence (P04629 33-796 G595R): as the sequence (P04629 33-796 G667C) above, with G563R, C635G counted along it
Description: TRKA G595R activity inhibition test (HTRF kinase assay). It counts as biochemical. To be noted: humanized recombined TRKA G595R protein, 2.9 μM ATP. On the procedure:
TRKA G595R Activity Inhibition Test:
The effect of the compounds of the invention on the activity of TRKA G595R was evaluated by the in vitro kinase assay.
The experimental method was summarized below:
The in vitro activity of TRKA G595R was measured using a HTRF kinase assay kit (Cisbio, No. 62TKOPEC) by detecting the phosphorylation level of the substrate in the kinase reaction. The reaction buffer contained the following components: the reaction buffer of the enzyme in the kit (1×), 5 mM MgCl2, 1 mM DTT. The humanized recombined TRKA G595R protein (No. N16-12BG, purchased from Signal Chem Life Sciences) was diluted into 0.25 ng/kinase solution with the reaction buffer. The substrate reaction solution comprised 0.51 μM biotin-labeled tyrosine kinase substrate and 2.9 μM ATP, which was diluted with reaction buffer. The detection buffer comprised 0.15 ng/μL cage antibody labelled with Eu3+ and 31.875 nM XL665 labeled with streptavidin, which was diluted with reaction buffer.
The compound was dissolved into 100% DMSO and diluted to 1 mM or 100 μM, then diluted with DMSO in 4 times serial dilution to a minimum concentration of 61 or 6.1 nM, and each concentration point was further diluted 40 times with the reaction buffer.
4 μl of solution of the test compound and 2 μl of solution of TRKA G595R kinase were added to the 384 well plate (Corning No. 4512), mixed well and incubated at room temperature for 15 minutes. Then 4 μl of solution of substrate was added and the reaction mixture was incubated at room temperature for 60 minutes. 10 μl of detection buffer of the same volume as the reaction mixture was then added, the reaction mixture was mixed well and allowed to stand for 30 minutes at room temperature. The reaction process was monitored at the wavelength of 620 nm and 665 nm by Envision board reader (Perkin Elmer). The ratio of 665/620 was positively correlated with the phosphorylation level of the substrate, then TRKA G595R kinase activity was determined. In this experiment, the group without TRKA G595R kinase was used as the negative control (100% inhibition), the group with TRKA G595R but without the test compound was used as the positive control (0% inhibition). The inhibition percentage of the test compound on TRKA G595R activity can be calculated by the following formula: Inhibition percentage=100−100*(signal value of the test compound under specific concentration−signal value of the negative control)/(signal value of the positive control−signal value of the negative control) The IC50 value of the test compound was calculated at 8 concentration points by use of XLfit (ID Business Solutions Ltd. UK) software through the following formula: Y=Bottom+(Top−Bottom)/(1+10^((log IC50−X)*slope factor)) […]

For a further test, the system named is KM12 cells. Description: KM12 cell proliferation, luminescent cell viability test (CellTiter-Glo). To be noted: Homo sapiens, 96 hours, CTG. The test is classed as cell-based. On the procedure:
Determination of Median Effective Inhibition Concentration GI50 in KM12 Cells
The effect of the compounds of the invention on the proliferation of KM12 cells was evaluated by the luminescent cell viability test.
as §1
CellTilter-Glo (CTG) detection kit was used. A unique and stable luciferase was used to detect ATP, an indicator of viable cell metabolism. The luminescence signal generated in the experiment was proportional to the number of viable cells in the culture medium, thus the proliferation of KM12 cells was detected.
KM12 cell (purchased from Shanghai Xinyu biological Co.) was cultured in IMDM complete medium (Thermo Fisher, 12440053) containing 10% FBS (GBICO, 10099-141) and 100 units/ml of penicillin streptomycin mixture (Thermofisher, 15140122). When the cell coverage rate in the culture container reached 80-90%, 0.25% trypsin (containing EDTA) (Thermofisher, 25200056) was used to digest and disperse the cells, then they were planted in a white 384 well plate (164610). To each well containing 1000 cells was added 27 μL IMDM complete medium. Then the 384 well plate was cultured overnight in an incubator containing 5% CO2 at 37° C. The compound was dissolved into 100% DMSO and diluted to 1 mM, then diluted with DMSO in 4 times serial dilution to the lowest concentration of 0.061 μM. Each concentration point was further diluted 50 times with IMDM medium. If the IC50 value of the compound was very low, the initial concentration of the compound can be reduced. 3 μl Diluted compound was added into each well, centrifuged and mixed well gently. The medium without cells was used as negative control (100% inhibition), and the group with 0.2% DMSO was used as positive control (0% inhibition).
The 384 well plate was placed in the incubator at 37° C. and 5% CO2 for further incubation. After 96 hours, the plate was taken out and placed at room temperature for 30 minutes. […] Then the cold light signal was read by Envision (Perkin Elmer). […]
The percentage of inhibition of KM12 cell proliferation by the compounds can be calculated by the following formula: Inhibition percentage=100−100*{[(Signalcompound−Signalnegative control)−T0control]/[(Signalpositive control−Signalnegative control)−T0control]}
The IC50 values of compounds were calculated by XLfit (ID Business Solutions Ltd., UK) software at 8 concentration points through the following formula: Y=Bottom+(Top−Bottom)/(1+10^((Log IC50−X)*slope factor))
Of which, Y is the inhibition percentage, Bottom is the bottom plateau of the curve (the bottom platform value of S curve), Top is the top plateau of the curve (the top platform value of S curve), X is the logarithm of the concentration of the compound to be measured.

The conditions of test [1]: early clinical trials, cited from earlier work.

TRKA, sequence (P04629 33-796): as the sequence (P04629 33-796 G667C) above, with C635G counted along it

As to `C[C@H]1CNC(=O)Nc2cnn3ccc(nc23)N2C[C@@H](F)C[C@@H]2c2cc(F)cnc2O1` [Compound 1, (2^2R,2^4S,5S)-2^4,3^5-difluoro-5-methyl-4-oxa-7,9-diaza-1(5,3)-pyrazolo[1,5-a]pyrimidin-3(3,2)-pyridin-2(1,2)-pyrrolidincyclononan-8-one], the figures for the concentration for half-maximal inhibition (IC50) on TRKA, on TRKA G667C and at TRKA G595R were 0.24 nM, 1.63 nM and 0.26 nM, respectively. In addition, the GI50 with KM12 cells came to 0.43 nM.
Consider `O=C1NCCOc2ncc(F)cc2[C@H]2C[C@H](F)CN2c2ccn3ncc(c3n2)N1` [Compound 2, (2^2R,2^4S)-2^4,3^5-difluoro-4-oxa-7,9-diaza-1(5,3)-pyrazolo[1,5-a]pyrimidin-3(3,2)-pyridin-2(1,2)-pyrrolidincyclononan-8-one], for which the IC50 on TRKA turned out to be 0.97 nM; at TRKA G667C it was 16.3 nM; at TRKA G595R, 12.2 nM. The compound also yielded a GI50 in the test on KM12 cells of 3.12 nM.
Regarding `CN1CCOc2ncc(F)cc2[C@H]2C[C@H](F)CN2c2ccn3ncc(c3n2)NC1=O` [Compound 3, (2^2R,2^4S)-2^4,3^5-difluoro-7-methyl-4-oxa-7,9-diaza-1(5,3)-pyrazolo[1,5-a]pyrimidin-3(3,2)-pyridin-2(1,2)-pyrrolidincyclononan-8-one], the figures for the concentration for half-maximal inhibition (IC50) on TRKA and on TRKA G595R were 1.46 nM and 10.2 nM, respectively. In the test with KM12 cells, this compound gave a GI50 of 33.7 nM.
As for `C[C@H]1CCNC(=O)Nc2cnn3ccc(nc23)N2CCC[C@@H]2c2cc(F)cnc2O1` [Compound 4, (2^2R,5S)-3^5-fluoro-5-methyl-4-oxa-8,10-diaza-1(5,3)-pyrazolo[1,5-a]pyrimidin-3(3,2)-pyridin-2(1,2)-pyrrolidincyclodecan-9-one], the 50% inhibitory concentration (IC50) came to 1.08 nM at TRKA and 1.4 nM at TRKA G595R. Besides, the GI50 in the test on KM12 cells was found to be 2.26 nM.
As to `O=C(Nc1cnn2ccc(N3CCC[C@@H]3c3cc(F)ccc3F)nc12)N1CC[C@H](O)C1` [larotrectinib], the “patients in complete remission” value in test [1] (6 patients, no tumor detectable by existing methods) is 12%. Also, the “patients who achieved objective responses” value in test [1] (38 patients) is given as 76%. For the same compound, in test [1], the “patients in remission for more than a year” value was 30 patients.

Values taken from patent US11878987B2, “Heterocyclic compound as TRK inhibitor” (Beijing Innocare Pharma Tech Co., Ltd., priority 2018, dated 2024).
